Measured values from US20070249655A1, “4-Substituted-1,5-Dihydro-Pyrido[3,2-B]Indol-2-Ones” (priority 2004, published 2007).
Read-outs that look alike come from different tables or passages of the source.

Columns and labels:
[1] = system: wild type laboratory HIV strain (HIV-1 strain LAI); experiment: Antiviral cellular assay (MT4 cells, MTT), wild type; assay type: cell-based
Experimental: The compounds of the present invention were examined for anti-viral activity in a cellular assay. […] The cellular assay was performed according to the following procedure.
(§1) HIV- or mock-infected MT4 cells were incubated for five days in the presence of various concentrations of the inhibitor. At the end of the incubation period, the replicating virus in the control cultures has killed all HIV-infected cells in the absence of any inhibitor. Cell viability was determined by measuring the concentration of MTT, a yellow, water soluble tetrazolium dye that is converted to a purple, water insoluble formazan in the mitochondrial of living cells only. Upon solubilization of the resulting formazan crystals with isopropanol, the absorbance of the solution was monitored at 540 nm. The values correlate directly to the number of living cells remaining in the culture at the completion of the five day incubation. The inhibitory activity of the compound was monitored on the virus-infected cells and was expressed as EC50 and EC90. These values represent the amount of the compound required to protect 50% and 90%, respectively, of the cells from the cytopathogenic effect of the virus. The toxicity of the compound was measured on the mock-infected cells and was expressed as CC50, which represents the concentration of compound required to inhibit the growth of the cells by 50%. The selectivity index (SI) (ratio CC50/EC50) is an indication of the selectivity of the anti-HIV activity of the inhibitor. Wherever results are reported as e.g. pEC50 or pCC50 values, the result is expressed as the negative logarithm of the result expressed as EC50 or CC50 respectively.

[2] = system: HIV strain A (Y181C); experiment: Antiviral cellular assay, mutant strain A; assay type: cell-based
Experimental: as §1
(§2) Because of the increasing emergence of drug resistant HIV strains, the present compounds were also tested for their potency against clinically isolated HIV strains harbouring several mutations (Tables 1 and 7). These mutations are associated with resistance to reverse transcriptase inhibitors and result in viruses that show various degrees of phenotypic cross-resistance to the currently commercially available drugs such as for instance AZT, didanosine, nevirapine, lamivudine and zalcibatine.

[3] = system: HIV strain B (K103N); experiment: Antiviral cellular assay, mutant strain B; assay type: cell-based
Experimental: as §1, §2

[4] = system: HIV strain C (L100I; K103N); experiment: Antiviral cellular assay, mutant strain C; assay type: cell-based
Experimental: as §1, §2

[5] = system: HIV strain D (L100I;K103N); experiment: Antiviral cellular assay, mutant strain D; assay type: cell-based
Experimental: as §1, §2

[6] = system: HIV strain E (F227C); experiment: Antiviral cellular assay, mutant strain E; assay type: cell-based
Experimental: as §1, §2

[7] = system: HIV strain F (Y188L); experiment: Antiviral cellular assay, mutant strain F; assay type: cell-based
Experimental: as §1, §2

[8] = system: HIV strain G (V106A, F227L); experiment: Antiviral cellular assay, mutant strain G; assay type: cell-based
Experimental: as §1, §2

[9] = system: HIV strain H (K103N, Y181C); experiment: Antiviral cellular assay, mutant strain H; assay type: cell-based
Experimental: as §1, §2

[10] = system: HIV strain I (K101E, K103N); experiment: Antiviral cellular assay, mutant strain I; assay type: cell-based
Experimental: as §1, §2

[11] = system: HIV strain J (I31L, L100I, K103N, E138G, Y181C, L214F); experiment: Antiviral cellular assay, mutant strain J; assay type: cell-based
Experimental: as §1, §2

[12] = system: HIV strain K (multi-mutant incl. M41L, D67N, K103N, Y181C, L210W, T215Y); experiment: Antiviral cellular assay, mutant strain K; assay type: cell-based
Experimental: as §1, §2

[13] = system: HIV-2; experiment: Antiviral cellular assay, HIV-2; assay type: cell-based; details: Human immunodeficiency virus 2; read-out: pEC50 towards HIV-2 (converted)
Experimental: as §1, with “The toxicity of the compound was measured on the mock-infected cells and was expressed as CC50, which represents the concentration of compound required to inhibit the growth of the cells by 50%. The selectivity index (SI) (ratio CC50/EC50) is an indication of the selectivity of the anti-HIV activity of the inhibitor.” left out
(§3) Row WT: pEC50 against wild type HlV-LAI strain. The toxicity (Tox) is expressed as the pCC50 value as determined with mock transfected cells. ND means not determined.

[14] = system: SIV (simian immunodeficiency virus); experiment: Antiviral cellular assay, SIV; assay type: cell-based; details: read-out: pEC50 towards SIV (converted)
[15] = in vitro; assay type: cell-based; details: human
Experimental: as §1, with “The toxicity of the compound was measured on the mock-infected cells and was expressed as CC50, which represents the concentration of compound required to inhibit the growth of the cells by 50%. The selectivity index (SI) (ratio CC50/EC50) is an indication of the selectivity of the anti-HIV activity of the inhibitor.” left out
as §3

[16] = molecular target: T1, HIV reverse transcriptase (Human immunodeficiency virus type 1 group M subtype B, UniProt P04585); experiment: In vitro inhibition of HIV reverse transcriptase (kit TRK 1022); assay type: biochemical; details: enzyme assay, no conversion to active metabolite needed
T1 construct: 5 μl HIV RT enzyme solution at a final enzyme activity of 15 mU per 50 μl reaction; purchased Amersham Life Sciences TRK 1022
Experimental: In vitro Inhibition of HIV Reverse Transcriptase The assay was run using kit TRK 1022 (Amersham Life Sciences) according to the manufacturer's instructions with slight modifications. Compounds were diluted in steps of ¼ in 100% DMSO and subsequently transferred to Medium A (1/50 dilution; medium A: RPMI 1640+10% FetalClone II+Gentamycin 20 mg/L). 25 μl of compound (in 2% DMSO in Medium A) or 25 μl of 2% DMSO in medium A was added to wells. To each well was added 25.5 μl master mix (master mix: 5 μl primer/template beads, 10 μl assay buffer, 0.5 μl tracer (3H-TTP), 5 μl HIV RT enzyme solution at a final enzyme activity of 15 mU per 50 μl reaction, 5 μl medium A). The plates were sealed, marked as radioactive and incubated during 4 hours at 37° C. Subsequently, 100 μl stop solution was added to each well (except R1). The radioactivity was counted in a TopCount.

[17] = system: Mycobacterium b.; experiment: Specificity versus non-viral pathogens: Mycobacterium b.; assay type: cell-based
[18] = system: Plasmodium f.; experiment: Specificity versus non-viral pathogens: Plasmodium f.; assay type: cell-based
[19] = system: Trypanosoma b.; experiment: Specificity versus non-viral pathogens: Trypanosoma b.; assay type: cell-based
[20] = system: Trypanosoma c.; experiment: Specificity versus non-viral pathogens: Trypanosoma c.; assay type: cell-based
[21] = Human immunodeficiency virus 1, MT4, read-out: EC50 value, wild-type HIV-LAI strain
[22] = EC50 mutant / EC50 wild type, rounded to nearest integer

Q: With `N#Cc1cc2[nH]c3ccccc3c2n(-c2ccc(F)c([N+](=O)[O-])c2)c1=O` [Compound 41] as the molecule, how does the EC50 [1, 21] read?
A: 1000 to 32000 nM

Q: Which EC50 [1, 21] does the source give for `Cn1c2ccccc2c2c1cc(C#N)c(=O)n2-c1ccc(Br)cc1` [Compound 39] here?
A: 1000 to 32000 nM

Q: For `N#Cc1cc2[nH]c3ccccc3c2n(-c2ccc(Br)cc2)c1=O` [Compound 38], which EC50 [1, 21] is on record?
A: 1000 to 32000 nM

Q: For `Cn1c2ccccc2c2c1ccc(=O)n2-c1ccc(C(=O)O)cc1` [Compound 99], which EC50 [1, 21] is on record?
A: 1000 to 32000 nM

Q: For `Cn1c2ccccc2c2c1ccc(=O)n2-c1ccc(/C(N)=N/O)cc1` [Compound 97], which EC50 [1, 21] is on record?
A: 1000 to 32000 nM

Q: Which EC50 [1, 21] does the source give for `CCn1c2ccccc2c2c1cc(C#N)c(=O)n2-c1ccc([N+](=O)[O-])cc1` [Compound 9] here?
A: < 1000 nM

Q: For `N#Cc1cc2[nH]c3ccccc3c2n(-c2cccc([N+](=O)[O-])c2)c1=O` [Compound 42], which EC50 [1, 21] is on record?
A: 1000 to 32000 nM

Q: For `Cn1c2ccccc2c2c1cc(C#N)c(=O)n2-c1ccc([N+](=O)[O-])cc1` [Compound 2, 5-methyl-1-(4-nitro-phenyl)-2-oxo-2,5-dihydro-1H-pyrido[3,2-b]indole-3-carbonitrile], which EC50 ([1]; Human immunodeficiency virus 1, MT4, read-out: EC50 value for wild-type HIV) is on record?
A: < 100 nM

Q: And the EC50 ([1]; Human immunodeficiency virus 1, WT, MT4 cells, read-out: pEC50 against wild type HIV-LAI strain (converted))?
A: 25.1 nM

Q: What about the “fold resistance, mutant A” value [2, 22] of the same molecule?
A: (4)

Q: What about the EC50 ([2]; Human immunodeficiency virus 1, read-out: pEC50 towards mutant A (converted)) of the same molecule?
A: 100 nM

Q: What about the “fold resistance, mutant B” value [3, 22] of the same molecule?
A: (1)

Q: What about the EC50 ([3]; Human immunodeficiency virus 1, read-out: pEC50 towards mutant B (converted)) of the same molecule?
A: 31.6 nM

Q: What about the “fold resistance, mutant C” value [4, 22] of the same molecule?
A: (3)

Q: What about the EC50 ([4]; Human immunodeficiency virus 1, read-out: pEC50 towards mutant C (converted)) of the same molecule?
A: 79.4 nM

Q: And the “fold resistance, mutant D” value [5, 22]?
A: (2)

Q: And the EC50 ([5]; Human immunodeficiency virus 1, read-out: pEC50 towards mutant D (converted))?
A: 50.1 nM

Q: What about the “fold resistance, mutant E” value [6, 22] of the same molecule?
A: (3)

Q: And the EC50 ([6]; Human immunodeficiency virus 1, read-out: pEC50 towards mutant E (converted))?
A: 63.1 nM

Q: What about the “fold resistance, mutant F” value [7, 22] of the same molecule?
A: (2)

Q: And the EC50 ([7]; Human immunodeficiency virus 1, read-out: pEC50 towards mutant F (converted))?
A: 39.8 nM

Q: And the “fold resistance, mutant G” value [8, 22]?
A: (3)

Q: What about the EC50 ([8]; Human immunodeficiency virus 1, read-out: pEC50 towards mutant G (converted)) of the same molecule?
A: 63.1 nM

Q: What about the “fold resistance, mutant H” value [9, 22] of the same molecule?
A: (5)

Q: What about the EC50 ([9]; Human immunodeficiency virus 1, read-out: pEC50 towards mutant H (converted)) of the same molecule?
A: 126 nM

Q: And the “fold resistance, mutant I” value [10, 22]?
A: (3)

Q: What about the EC50 ([10]; Human immunodeficiency virus 1, read-out: pEC50 towards mutant I (converted)) of the same molecule?
A: 63.1 nM

Q: And the “fold resistance, mutant J” value [11, 22]?
A: (5)

Q: And the EC50 ([11]; Human immunodeficiency virus 1, read-out: pEC50 towards mutant J (converted))?
A: 126 nM

Q: And the “fold resistance, mutant K” value [12, 22]?
A: (4)

Q: What about the EC50 ([12]; Human immunodeficiency virus 1, read-out: pEC50 towards mutant K (converted)) of the same molecule?
A: 100 nM

Q: And the EC50 [13]?
A: 251 nM

Q: And the EC50 [14]?
A: 316 nM

Q: And the CC50 at 5 days [15]?
A: > 32400 nM

Q: What about the “inhibition of HIV reverse transcriptase in vitro” value [16] of the same molecule?
A: inhibits HIV reverse transcriptase in vitro

Q: And the EC50 [17]?
A: > 32000 nM

Q: And the EC50 [18]?
A: > 32000 nM

Q: What about the EC50 [19] of the same molecule?
A: > 32000 nM

Q: What about the EC50 [20] of the same molecule?
A: > 32000 nM

Q: For `N#Cc1ccc(-n2c(=O)ccc3[nH]c4ccccc4c32)cc1` [Compound 93], which EC50 [1, 21] is on record?
A: 1000 to 32000 nM

Q: Which EC50 [1, 21] does the source give for `Cn1c2ccccc2c2c1cc(Br)c(=O)n2-c1ccc([N+](=O)[O-])cc1` [Compound 68] here?
A: < 1000 nM

Q: With `Cn1c2ccccc2c2c1cc(C#N)c(=O)n2-c1ccc(F)cc1` [Compound 44] as the molecule, how does the EC50 [1, 21] read?
A: > 32000 nM

Q: For `Cn1c2ccccc2c2c1ccc(=O)n2-c1ccc([N+](=O)[O-])cc1` [Compound 67], which EC50 [1, 21] is on record?
A: < 1000 nM

Q: With `N#Cc1cc2c(c3ccccc3n2Cc2ccccc2)n(-c2ccc([N+](=O)[O-])cc2)c1=O` [Compound 6] as the molecule, how does the EC50 [1, 21] read?
A: 1000 to 32000 nM

Q: With `Cn1c2ccccc2c2c1ccc(=O)n2-c1ccc(C(N)=O)cc1` [Compound 98] as the molecule, how does the EC50 [1, 21] read?
A: 1000 to 32000 nM

Q: With `Cn1c2ccccc2c2c1cc(C(=N)NO)c(=O)n2-c1ccc([N+](=O)[O-])cc1` [Compound 70] as the molecule, how does the EC50 [1, 21] read?
A: 1000 to 32000 nM
